# Measurements from patent US6426369B1, “Oxethazaine as antimicrobial agent” (Eisai Co., Ltd., priority 1997, dated 2002).
# Read-outs that look alike come from different tables or passages of the source.
# Assays:
# H. pylori [1] = assay: Antimicrobial activity test 1: anti-H. pylori activity of a single compound (agar plate method); assay type: cell-based, Helicobacter pylori; settings: for MIC: Helicobacter pylori
# [2] = Acute toxicity test, single oral dose, rats; assay type: in vivo, Slc:SD rats; settings: for LD50: Slc:SD, rat, in vivo, po, single oral dose, read-out: LD50 (Oral administration)
# Procedure: (§1) A toxicity test was conducted by orally administering a single dose into 7- to 8-weeks old Slc:SD rats and Slc:ICR mice, each group consisting of 5 females and 5 males (medium; physiological saline).
# H. pylori [3] = assay: Antimicrobial activity test 2: time for sterilizing H. pylori (viable cell count in Brucella broth); assay type: cell-based, Helicobacter pylori
# Procedure: A solution of the test compound was added to Brucella broth containing 5% fetal bovine serum, cultured under slightly aerobic conditions at 37° C., and the vial microbe cell number in Brucella agar containing 7% horse blood was counted at predetermined intervals. The above compound (1) was dissolved in a 1% aqueous solution of […] (DMSO), and the above compound (2) was dissolved in water to prepare a solution of each test compound. “cfu” in Tables and Figures means “colony forming unit”.
# [4] = Acute toxicity test, single oral dose, mice; settings: Slc:ICR, mouse, in vivo, read-out: LD50 (Oral administration)
# Procedure: as §1
# H. pylori [5] = assay: Antimicrobial activity test 5: oxethazaine in combination with compound (IV) (lansoprazole), checker board method; assay type: cell-based, Helicobacter pylori
# Text: The effect of oxethazaine used in combination with compound (IV) (lansoprazole) was examined in the same manner as in antimicrobial activity test 1, using the checker board method.
# Hereinafter, the results are shown for each strain in the same manner as in antimicrobial activity test 3.
smiles,measurement,setting,value
"CN(C(=O)CN(CCO)CC(=O)N(C)C(C)(C)Cc1ccccc1)C(C)(C)Cc1ccccc1 [Oxethazaine, 2,2′-[(2-hydroxyethyl)amino]bis[N-(1,1-dimethyl-2-phenylethyl)-N-methylacetamide]]",MIC,"H. pylori [1]; NCTC11637, strain NCTC11637, read-out: MIC (growth inhibition)",25 µg/mL
same,MIC,"H. pylori [1]; NCTC11639, strain NCTC11639, read-out: MIC (growth inhibition)",50 µg/mL
same,MIC,"H. pylori [1]; NCTC11916, strain NCTC11916, read-out: MIC (growth inhibition)",25 µg/mL
same,MIC,"H. pylori [1]; strain 89-355, read-out: MIC (growth inhibition)",12.5 µg/mL
same,MIC,"H. pylori [1]; strain 89-357, read-out: MIC (growth inhibition)",25 µg/mL
same,MIC,"H. pylori [1]; strain 89-360 (1), read-out: MIC (growth inhibition)",25 µg/mL
same,MIC,"H. pylori [1]; strain 89-360, read-out: MIC (growth inhibition)",25 µg/mL
same,MIC,"H. pylori [1]; strain 90-384, read-out: MIC (growth inhibition)",25 µg/mL
same,MIC,"H. pylori [1]; strain 90-388 (1), read-out: MIC (growth inhibition)",25 µg/mL
same,MIC,"H. pylori [1]; strain 90-388, read-out: MIC (growth inhibition)",25 µg/mL
same,MIC,"H. pylori [1]; strain 90-390 (1), read-out: MIC (growth inhibition)",25 µg/mL
same,MIC,"H. pylori [1]; strain 90-390, read-out: MIC (growth inhibition)",25 µg/mL
same,MIC,"H. pylori [1]; strain 90-392, read-out: MIC (growth inhibition)",25 µg/mL
same,MIC,"H. pylori [1]; strain 90-397 (first line, r19), read-out: MIC (growth inhibition)",25 µg/mL
same,MIC,"H. pylori [1]; strain 90-397 (second line, r25), read-out: MIC (growth inhibition)",25 µg/mL
same,MIC,"H. pylori [1]; strain 90-407 (1), read-out: MIC (growth inhibition)",25 µg/mL
same,MIC,"H. pylori [1]; strain 90-407, read-out: MIC (growth inhibition)",25 µg/mL
same,MIC,"H. pylori [1]; strain 90-411, read-out: MIC (growth inhibition)",25 µg/mL
same,MIC,"H. pylori [1]; strain 90-414 (1), read-out: MIC (growth inhibition)",25 µg/mL
same,MIC,"H. pylori [1]; strain 90-414, read-out: MIC (growth inhibition)",25 µg/mL
same,MIC,"H. pylori [1]; strain 90-428, read-out: MIC (growth inhibition)",25 µg/mL
same,MIC,"H. pylori [1]; strain EH12, read-out: MIC (growth inhibition)",25 µg/mL
same,MIC,"H. pylori [1]; strain EH13, read-out: MIC (growth inhibition)",25 µg/mL
same,MIC,"H. pylori [1]; strain EH16, read-out: MIC (growth inhibition)",25 µg/mL
same,MIC,"H. pylori [1]; strain EH26, read-out: MIC (growth inhibition)",25 µg/mL
same,MIC,"H. pylori [1]; summary of the strains of antimicrobial activity test 1, read-out: MIC for each strain",~25 µg/mL
same,anti-H. pylori activity,H. pylori [1]; conclusion from test 1,excellent anti-H. pylori activity
same,LD50,"[2]; female, Rat ♀",1070 mg/kg
same,LD50,"[2]; male, Rat ♂",≥ 1000 mg/kg
same,LD50 values relative to clinical doses,"[2]; oral, rats and mice, clinical doses 15 to 40 mg/day",about 5000 times
same,Viable microbe cell number,"H. pylori [3]; EH12, 1 MIC, 0 h",5.60 log10cfu/ml
same,Viable microbe cell number,"H. pylori [3]; EH12, 1 MIC, 3 h",5.67 log10cfu/ml
same,Viable microbe cell number,"H. pylori [3]; EH12, 1 MIC, 6 h",5.61 log10cfu/ml
same,Viable microbe cell number,"H. pylori [3]; EH12, 1 MIC, 9 h",5.68 log10cfu/ml
same,Viable microbe cell number,"H. pylori [3]; EH12, 1 MIC, 24 h",4.51 log10cfu/ml
same,Viable microbe cell number,"H. pylori [3]; EH12, 2 MIC, 0 h",5.60 log10cfu/ml
same,Viable microbe cell number,"H. pylori [3]; EH12, 2 MIC, 3 h",1.78 log10cfu/ml
same,Viable microbe cell number,"H. pylori [3]; EH12, 2 MIC, 6 h",0 log10cfu/ml
same,Viable microbe cell number,"H. pylori [3]; EH12, 2 MIC, 9 h",0 log10cfu/ml
same,Viable microbe cell number,"H. pylori [3]; EH12, 2 MIC, 24 h",0 log10cfu/ml
same,Viable microbe cell number,"H. pylori [3]; EH12, 4 MIC, 0 h",5.60 log10cfu/ml
same,Viable microbe cell number,"H. pylori [3]; EH12, 4 MIC, 3 h",0 log10cfu/ml
same,Viable microbe cell number,"H. pylori [3]; EH12, 4 MIC, 6 h",0 log10cfu/ml
same,Viable microbe cell number,"H. pylori [3]; EH12, 4 MIC, 9 h",0 log10cfu/ml
same,Viable microbe cell number,"H. pylori [3]; EH12, 4 MIC, 24 h",0 log10cfu/ml
same,Viable microbe cell number,"H. pylori [3]; EH12, ½ MIC, 0 h",5.60 log10cfu/ml
same,Viable microbe cell number,"H. pylori [3]; EH12, ½ MIC, 3 h",5.77 log10cfu/ml
same,Viable microbe cell number,"H. pylori [3]; EH12, ½ MIC, 6 h",5.19 log10cfu/ml
same,Viable microbe cell number,"H. pylori [3]; EH12, ½ MIC, 9 h",5.71 log10cfu/ml
same,Viable microbe cell number,"H. pylori [3]; EH12, ½ MIC, 24 h",5.27 log10cfu/ml
same,sterilization curve,"H. pylori [3]; FIGS. 1 to 4, compared with the antibiotic",rapidly dropping sterilization curve
same,Viable microbe cell number,"H. pylori [3]; NCTC 11637, 1 MIC, 0 h",5.70 log10cfu/ml
same,Viable microbe cell number,"H. pylori [3]; NCTC 11637, 1 MIC, 3 h",5.24 log10cfu/ml
same,Viable microbe cell number,"H. pylori [3]; NCTC 11637, 1 MIC, 6 h",4.98 log10cfu/ml
same,Viable microbe cell number,"H. pylori [3]; NCTC 11637, 1 MIC, 9 h",4.64 log10cfu/ml
same,Viable microbe cell number,"H. pylori [3]; NCTC 11637, 1 MIC, 24 h",4.30 log10cfu/ml
same,Viable microbe cell number,"H. pylori [3]; NCTC 11637, 2 MIC, 0 h",5.70 log10cfu/ml
same,Viable microbe cell number,"H. pylori [3]; NCTC 11637, 2 MIC, 3 h",1.90 log10cfu/ml
same,Viable microbe cell number,"H. pylori [3]; NCTC 11637, 2 MIC, 6 h",0 log10cfu/ml
same,Viable microbe cell number,"H. pylori [3]; NCTC 11637, 2 MIC, 9 h",0 log10cfu/ml
same,Viable microbe cell number,"H. pylori [3]; NCTC 11637, 2 MIC, 24 h",0 log10cfu/ml
same,Viable microbe cell number,"H. pylori [3]; NCTC 11637, 4 MIC, 0 h",5.70 log10cfu/ml
same,Viable microbe cell number,"H. pylori [3]; NCTC 11637, 4 MIC, 3 h",0 log10cfu/ml
same,Viable microbe cell number,"H. pylori [3]; NCTC 11637, 4 MIC, 6 h",0 log10cfu/ml
same,Viable microbe cell number,"H. pylori [3]; NCTC 11637, 4 MIC, 9 h",0 log10cfu/ml
same,Viable microbe cell number,"H. pylori [3]; NCTC 11637, 4 MIC, 24 h",0 log10cfu/ml
same,Viable microbe cell number,"H. pylori [3]; NCTC 11637, ½ MIC, 0 h",5.70 log10cfu/ml
same,Viable microbe cell number,"H. pylori [3]; NCTC 11637, ½ MIC, 3 h",5.48 log10cfu/ml
same,Viable microbe cell number,"H. pylori [3]; NCTC 11637, ½ MIC, 6 h",5.27 log10cfu/ml
same,Viable microbe cell number,"H. pylori [3]; NCTC 11637, ½ MIC, 9 h",5.11 log10cfu/ml
same,Viable microbe cell number,"H. pylori [3]; NCTC 11637, ½ MIC, 24 h",5.51 log10cfu/ml
same,Viable microbe cell number,"H. pylori [3]; NCTC 11916, 1 MIC, 0 h",5.72 log10cfu/ml
same,Viable microbe cell number,"H. pylori [3]; NCTC 11916, 1 MIC, 3 h",6.04 log10cfu/ml
same,Viable microbe cell number,"H. pylori [3]; NCTC 11916, 1 MIC, 6 h",5.92 log10cfu/ml
same,Viable microbe cell number,"H. pylori [3]; NCTC 11916, 1 MIC, 9 h",5.84 log10cfu/ml
same,Viable microbe cell number,"H. pylori [3]; NCTC 11916, 1 MIC, 24 h",4.67 log10cfu/ml
same,Viable microbe cell number,"H. pylori [3]; NCTC 11916, 2 MIC, 0 h",5.77 log10cfu/ml
same,Viable microbe cell number,"H. pylori [3]; NCTC 11916, 2 MIC, 3 h",3.63 log10cfu/ml
same,Viable microbe cell number,"H. pylori [3]; NCTC 11916, 2 MIC, 6 h",2.83 log10cfu/ml
same,Viable microbe cell number,"H. pylori [3]; NCTC 11916, 2 MIC, 9 h",2.61 log10cfu/ml
same,Viable microbe cell number,"H. pylori [3]; NCTC 11916, 2 MIC, 24 h",0 log10cfu/ml
same,Viable microbe cell number,"H. pylori [3]; NCTC 11916, 4 MIC, 0 h",5.77 log10cfu/ml
same,Viable microbe cell number,"H. pylori [3]; NCTC 11916, 4 MIC, 3 h",0 log10cfu/ml
same,Viable microbe cell number,"H. pylori [3]; NCTC 11916, 4 MIC, 6 h",0 log10cfu/ml
same,Viable microbe cell number,"H. pylori [3]; NCTC 11916, 4 MIC, 9 h",0 log10cfu/ml
same,Viable microbe cell number,"H. pylori [3]; NCTC 11916, 4 MIC, 24 h",0 log10cfu/ml
same,Viable microbe cell number,"H. pylori [3]; NCTC 11916, ½ MIC, 0 h",5.77 log10cfu/ml
same,Viable microbe cell number,"H. pylori [3]; NCTC 11916, ½ MIC, 3 h",5.70 log10cfu/ml
same,Viable microbe cell number,"H. pylori [3]; NCTC 11916, ½ MIC, 6 h",6.35 log10cfu/ml
same,Viable microbe cell number,"H. pylori [3]; NCTC 11916, ½ MIC, 9 h",6.32 log10cfu/ml
same,Viable microbe cell number,"H. pylori [3]; NCTC 11916, ½ MIC, 24 h",6.44 log10cfu/ml
same,LD50,"[4]; female, Mouse ♀",≥ 1000 mg/kg
same,LD50,"[4]; male, Mouse ♂",1230 mg/kg
same,effect of combined use,H. pylori [5]; strain 90-392,90-392 (additive effect)
same,effect of combined use,H. pylori [5]; strain 90-397,90-397 (synergism)
same,effect of combined use,H. pylori [5]; strain 90-414,90-414 (synergism)
same,effect of combined use,H. pylori [5]; strain 90-414(1),90-414(1) (synergism)
